Test results published in patent US20030225049A1, “Method of treatment for increasing the number of NMDA receptors in a mammalian brain” (UNIVERSITE PARIS VI, priority 1998, published 2003).

How the values were obtained:
Assay type in all cases: in vivo
[1] = test system: NMDA receptors; assay: Effect of DHEAS treatment on [3H]-MK801-labeled NMDA receptor sites in rat brain (quantitative autoradiography); conditions: male Wistar rats, 30 mg/kg i.p. twice daily for 5 days
Description: 1.1 Labeling the NMDA Receptors with the Ligand [^3H]-MK801
The NMDA receptors in the rat brain were labeled by means of the quantitative autoradiography technique, thereby making it possible to visualize and quantify the number of receptors in different regions of the brain.
The radioactive ligand which makes it possible to specifically recognize the sites of the NMDA receptors is tritium-labeled dizocilpine (MK801), i.e. [^3H]-MK801 (Kemp et al. TINS (1987) 294-298).
Male rats (Wistar) weighing between 200 and 220 g were decapitated. Their brains were rapidly removed and placed in liquid isopentane at a temperature of −40° C. The brains were then stored at −80° C. until used.
Brain sections having a thickness of […] were obtained using a Frigocut 2800® cryostat, which is marketed by Reichert Jung.
The brain sections were preincubated in a 50 mM Tris-acetate, pH 7.4, buffer at 4° C. for 30 minutes. They were then dried rapidly at room temperature.
The sections were then incubated with the radioligand [^3H]-MK801, sold by New England Nuclear (Boston, Mass., USA) and having a specific activity of 24 Ci/mmol, at a concentration of 5 nM in the abovementioned buffer at 4° C. for a period of 4 hours.
Control sections were incubated with MK801, which was present at a concentration of 10^−5 M and which was not labeled with tritium, in order to determine non-specific binding.
All the sections were then rinsed for 5 seconds and then for 90 minutes in the same cold buffer.
The sections were dried at room temperature and then exposed on tritium-hyperfilm films (Amersham) at 4° C. in the dark for 4 weeks in autoradiography cassettes.
The films were developed for 2 minutes in a Kodak D19 developer and then fixed in Kodak Rapid fixer and finally rinsed for an hour in running water.
The autoradiographic labeling was quantified by densitometry using the RAG-200 software sold by BIOCOM (Les Ulis, France), and the binding was measured by relative optical density.
30 mg of DHEAS were administered/kg, intraperitoneally and twice daily, to non-castrated male Wistar rats for 5 days. The rats were sacrificed on the 5th day, 30 minutes after the last injection of DHEAS.
The apparent [^3H]-MK801-binding sites are measured by optical density OD for the total specific binding of [^3H]-MK801 in the cortex and different regions of the hippocampus: CA1; CA3; lateral blade of the dentate gyrus, DG1b, and the median blade of the dentate gyrus, DGmb.

[2] = test system: NR1 subunit of the NMDA receptor; assay: Immunohistochemistry of NR1 subunits of NMDA receptors in rat brain after DHEAS treatment; conditions: after 5, 20 and 30 days of treatment, 30 mg/kg i.p. twice daily
Procedure: (§1) Male Wistar rats weighing 200-220 g (IFFA CREDO, Paris) were housed at 21° C. with a standard 12 h light/12 h dark cycle and with food and water being freely available. The animals received intraperitoneal (i.p.) injections of either the vehicle dimethyl sulfoxide (DMSO; 0.2 ml/250 g body weight(b.w.) or dehydroepiandrosterone sulfate (DHEAS; 30 mg/kg b.w. dissolved in DMSO (0.2 ml/250 g b.w)) twice daily, at 8 a.m. and 6 p.m., for a period of either 5, 20 or 30 days. The last injection was given at 8 a.m. of the 5th, 20th or 30th day. All the animals were killed 2 hours after the last injection. Six groups of animals (ten animals per group) were used. Three control groups received DMSO alone for a period of 5, 20 or 30 days respectively, and, in a similar manner, three groups received DHEAS treatment for a period of 5, 20 or 30 days respectively.
(§2) The rats were killed by decapitation and the brains were rapidly removed from the skull, quickly frozen in liquid isopentane at −40° C., and kept at −80° C. until sectioned. The frozen brains were cut into 20 um thick sections in a cryostat (Frigocut 2800, Reichert Jung). […]
(§3) The increase can be quantified by the SCION program developed at the National Institutes of Health (USA). […]

[3] = test system: NR2 subunits of NMDA receptors (NMDA R2 A/B); assay: Immunohistochemistry of NR2 subunits of NMDA receptors in rat brain after DHEAS treatment; conditions: after 5, 20 and 30 days of treatment, 30 mg/kg i.p. twice daily
Procedure: as §1, §2, §3

dehydroepiandrosterone sulfate [DHEAS]
number of [3H]-MK801 sites, OD ([1]; CA1): 54.01 ± 4.05 | number of [3H]-MK801 sites, OD ([1]; CA3): 33.37 ± 4.94 | number of [3H]-MK801 sites, OD ([1]; Cortex): 24.88 ± 2.73 | number of [3H]-MK801 sites, OD ([1]; DG1b (dentate gyrus, lateral blade)): 42.15 ± 4.31 | number of [3H]-MK801 sites, OD ([1]; DGmb (dentate gyrus, medial blade)): 43.13 ± 3.53 | number of NR1 subunits (in words) [2]: clear increase | NR2 subunits (in words) [3]: slight increase
